According to ChEMBL document CHEMBL3044783, “Effects of pyrrolizidine alkaloids on the performance of plant-parasitic and free-living nematodes” (Pest Manag Sci, 2009):
Values after ≈ are worked out from the molar mass of the structure shown. Active and inactive are the calls of the source. No cut-off for these calls is given here.

Key:
Heterodera schachtii [1] = test: Nematicidal activity against juvenile stage of Heterodera schachtii assessed as inhibition of mobility after 168 hr; format: functional
Rhabditis sp. [2] = test: Nematicidal activity against juvenile stage of Rhabditis sp. assessed as inhibition of mobility after 20 hr; format: functional, organism-based
Rhabditis sp. [3] = test: Nematicidal activity against juvenile stage of Rhabditis sp. assessed as reduction of nematode development at 1 mg/mL after 72 hr by stereomicroscopic analysis (reference value: 62%); format: functional; set-up: scale not given: the % may be the effect or the level left
Rhabditis sp. [4] = test: Nematicidal activity against juvenile stage of Rhabditis sp. assessed as reduction of nematode development at 0.01 mg/mL after 72 hr by stereomicroscopic analysis (reference value: 62%); format: functional; set-up: scale not given: the % may be the effect or the level left
Meloidogyne incognita [5] = test: Nematicidal activity against juvenile stage of Meloidogyne incognita (root-knot nematode) assessed as inhibition of mobility after 168 hr; format: functional
Rhabditis sp. [6] = test: Nematicidal activity against juvenile stage of Rhabditis sp. assessed as inhibition of mobility after 168 hr; format: functional
Heterodera schachtii [7] = test: Nematicidal activity against juvenile stage of Heterodera schachtii assessed as inhibition of mobility incubated for 168 hr followed by compound wash out measured after 24 hr; format: functional
Pratylenchus penetrans [8] = test: Nematicidal activity against juvenile stage of Pratylenchus penetrans assessed as inhibition of mobility after 20 hr; format: functional
Meloidogyne incognita [9] = test: Nematicidal activity against juvenile stage of Meloidogyne incognita (root-knot nematode) assessed as inhibition of mobility incubated for 168 hr followed by compound wash out measured after 24 hr; format: functional
Rhabditis sp. [10] = test: Nematicidal activity against juvenile stage of Rhabditis sp. assessed as reduction of nematode development at 0.1 mg/mL after 72 hr by stereomicroscopic analysis (reference value: 62%); format: functional; set-up: scale not given: the % may be the effect or the level left
Meloidogyne incognita [11] = test: Nematicidal activity against juvenile stage of Meloidogyne incognita (root-knot nematode) assessed as inhibition of mobility after 20 hr; format: functional
Pratylenchus penetrans [12] = test: Nematicidal activity against juvenile stage of Pratylenchus penetrans assessed as inhibition of mobility incubated for 168 hr followed by compound wash out measured after 24 hr; format: functional
Heterodera schachtii [13] = test: Nematicidal activity against juvenile stage of Heterodera schachtii assessed as inhibition of mobility after 20 hr; format: functional
Pratylenchus penetrans [14] = test: Nematicidal activity against juvenile stage of Pratylenchus penetrans assessed as inhibition of mobility after 168 hr; format: functional
Rhabditis sp. [15] = test: Nematicidal activity against juvenile stage of Rhabditis sp. assessed as reduction of fecundity at 0.1 mg/mL after 72 hr by stereomicroscopic analysis relative to untreated control; format: functional, organism-based
Rhabditis sp. [16] = test: Nematicidal activity against juvenile stage of Rhabditis sp. assessed as reduction of fecundity at 0.01 mg/mL after 72 hr by stereomicroscopic analysis relative to untreated control; format: functional, organism-based

Row | Structure (SMILES) | MIC50 (Heterodera schachtii [1]) | MIC50 (Rhabditis sp. [2]) | Activity (Rhabditis sp. [3]) [%] | Activity (Rhabditis sp. [4]) [%] | MIC50 (Meloidogyne incognita [5]) [µg/mL] | MIC50 (Rhabditis sp. [6]) | MIC50 (Heterodera schachtii [7]) | MIC50 (Pratylenchus penetrans [8]) | MIC50 (Meloidogyne incognita [9]) | Activity (Rhabditis sp. [10]) [%] | MIC50 (Meloidogyne incognita [11]) | MIC50 (Pratylenchus penetrans [12]) | MIC50 (Heterodera schachtii [13]) | MIC50 (Pratylenchus penetrans [14]) | Activity (Rhabditis sp. [15]) | Activity (Rhabditis sp. [16])
1 | CO[C@H](C)[C@](O)(C(=O)OCC1=CC[N+]2([O-])CC[C@H](O)[C@@H]12)C(C)C (some centres not stated) [HELIOTRINE N-OXIDE] | 77400 µg/mL (≈ 235 mM) | inactive | 0 | 68 | 900 (≈ 2.73 mM) | inactive | inactive | inactive | 1700 µg/mL (≈ 5.16 mM) | 55 | 4800 µg/mL (≈ 14.6 mM) | inactive | inactive | inactive | Active | 
2 | CO[C@H](C)[C@](O)(C(=O)OCC1=CCN2CC[C@H](O)[C@@H]12)C(C)C [HELIOTRINE] | 2100 µg/mL (≈ 6.7 mM) | inactive | 0 | 58 | 300 (≈ 0.957 mM) | 100 µg/mL (≈ 0.319 mM) | 1100 µg/mL (≈ 3.51 mM) | 49800 µg/mL (≈ 159 mM) | 800 µg/mL (≈ 2.55 mM) | 32 | 57900 µg/mL (≈ 185 mM) | 3300 µg/mL (≈ 10.5 mM) | inactive | 4800 µg/mL (≈ 15.3 mM) | Active | Active
3 | C/C=C(/C)C(=O)O[C@H]1CC[N+]2([O-])CC=C(COC(=O)[C@](O)(C(C)C)[C@@H](C)OC)[C@H]12 (some centres not stated) [LASIOCARPINE N-OXIDE] | inactive |  |  |  | 84400 (≈ 205 mM) |  | inactive |  | inactive |  | inactive |  | inactive |  |  | 
